{"source": "paper PMC7939474", "about": "(The Journal of Biological Chemistry, 2021)", "target": "T1, VcINDY WT (Vibrio cholerae, UniProt Q9KNE0)", "T1 construct": "gene VC_A0025", "assay": "biochemical"}
{"smiles": "O=C(O)CCC(=O)O", "note": "[succinate]", "values": [{"measurement": "Kd", "result": "4.3 ± 1.5", "unit": "mM"}]}
